Results published in the NIST ThermoML archive (doi:10.1021/je100598x).

Experiment: cn = amount concentration of the nth substance listed, in mol/dm3
Settings: 101 kPa, Liquid, Direct current cell with electrodes

CCCCCCCCCCCC[N+](CCC)(CCC)CCC.[Br-] [dodecyltripropylammonium bromide] + O
electrical conductivity [S/m]
Settings | 303.15 K | 308.15 K | 313.15 K | 318.15 K
c1 = 0.001055 | – | 0.01244 | 0.0137 | 0.0147
c1 = 0.002089 | – | 0.0238 | 0.0261 | 0.0282
c1 = 0.003101 | – | 0.0345 | 0.038 | 0.0412
c1 = 0.004092 | – | 0.0449 | 0.0496 | 0.0538
c1 = 0.005063 | – | 0.0546 | 0.0605 | 0.0657
c1 = 0.006015 | – | 0.0643 | 0.0712 | 0.0774
c1 = 0.006948 | – | 0.0741 | 0.0816 | 0.0886
c1 = 0.007862 | – | 0.083 | 0.0912 | 0.0991
c1 = 0.008759 | – | 0.0913 | 0.1001 | 0.109
c1 = 0.009639 | – | 0.0982 | 0.108 | 0.117
c1 = 0.0105 | – | 0.1035 | 0.1136 | 0.1242
c1 = 0.01135 | 0.0984 | 0.108 | 0.118 | 0.13
c1 = 0.01218 | 0.1018 | 0.1117 | 0.1228 | 0.1348
c1 = 0.01319 | 0.106 | 0.116 | 0.128 | 0.1405
c1 = 0.01419 | 0.109 | 0.1203 | 0.1325 | 0.146
c1 = 0.01516 | 0.1128 | 0.1242 | 0.137 | 0.1512
c1 = 0.01657 | 0.118 | 0.13 | 0.1433 | 0.157
c1 = 0.01794 | 0.1224 | 0.135 | 0.149 | 0.165
c1 = 0.01927 | 0.127 | 0.1404 | 0.155 | 0.1719
c1 = 0.02055 | 0.1312 | 0.145 | 0.161 | 0.178
c1 = 0.02179 | 0.135 | 0.15 | 0.166 | 0.1843
c1 = 0.023 | 0.139 | 0.1545 | 0.1709 | 0.1906
c1 = 0.02417 | 0.1433 | 0.159 | 0.175 | 0.196
